Measured values published in patent publication US9139796B2, “Methods of and formulations for reducing and inhibiting the growth of the concentration of microbes in water-based fluids and systems used with them” (Dow Global Technologies LLC, priority 2007, dated 2015).
Where two headings read alike, the source gives them in different places.

Key:
[1] = system: oil/gas field-isolated sulfate reducing bacteria (SRB); assay: Biocidal activity against oil/gas field-isolated sulfate reducing bacteria under anaerobic environment in deaerated salt solution; format: cell-based
Procedure: (§1) A sterile 0.85% NaCl solution is contaminated with bacterial inoculums at final bacterial concentrations of ˜10^7 CFU/mL. At day zero, either oxazolidine compound (BIOBAN™ CS-1135, 78% 4,4-dimethyloxazolidine in water, The Dow Chemical Company, or BIOBAN™ CS-1246, 97.5% 7-ethylbicyclooxazolidine in water, The Dow Chemical Company), THPS (AQUCAR™ THPS 75, 75% THPS in water, The Dow Chemical Company), or a combination of oxazolidine compound and THPS is added and the solution mixed well to provide a desired final concentration. […]
The protocol used to test against oil/gas field-isolated sulfate reducing bacteria (SRB) is performed as described above, but under anaerobic environment (Bactron III anaerobic chamber) and using a deaerated sterile salt solution (1.2490 g NaCl, 2.9290 g NaHCO3, 0.1910 g Na2CO3, 0.0060 g Na2SO4, 0.033 g CaCl2, and 0.0590 g MgCl2.6H2O in 1 L water) instead of 0.85% NaCl solution.
(§2) The testing protocol described in Example 1 is used for aerobic bacteria and anaerobic sulfate reducing bacteria.

[2] = system: Staphylococcus aureus ATCC 6538, Klebsiella pneumoniae ATCC 8308, Bacillus subtillus ATCC 8473, Escherichia coli ATCC 11229; assay: Biocidal activity against standard aerobic bacterial strains in 0.85% NaCl solution, live count by serial dilution; format: cell-based; details: biocide alone; average for four standard aerobic bacteria; ~10^7 CFU/mL, 37° C.
Procedure: as §1
The testing protocol described above is used for the standard bacterial strains Staphylococcus aureus ATCC 6538, Klebsiella pneumoniae ATCC 8308, Bacillus subtillus ATCC 8473, Escherichia coli ATCC 11229.
as §2

[3] = biocide alone, field anaerobic SRB, anaerobic chamber

Compound	Concentration required to achieve at least 3 log bacterial reduction in 1 hr [1, 3]	Concentration required to achieve at least 3 log bacterial reduction in 1 hr [2]	Concentration required to achieve at least 3 log bacterial reduction in 1 hr [1]
CCC12COCN1COC2 [7-ethylbicyclooxazolidine, 5-ethyl-1-aza-3,7-dioxabicyclo[3.3.0]octane]	>1000 ppm, active	272.04 ppm, active	–
tetrakis(hydroxymethyl)phosphonium sulfate [THPS]	–	44.49 ppm, active	33.35 ppm, active
CC1(C)COCN1 [4,4-dimethyloxazolidine]	1000 ppm, active	272.04 ppm, active	–
